Experimental findings from publication PMC3149845 (The Journal of neuroscience : the official journal of the …, 2011) are described below.

For experiment [1], the target named is T1, hTas1R2:S40T/D142E+hTas1R3 (Homo sapiens, UniProt Q8TE23, D142E/S40T).
T1 sequence (Q8TE23 20-839 S40T/D142E): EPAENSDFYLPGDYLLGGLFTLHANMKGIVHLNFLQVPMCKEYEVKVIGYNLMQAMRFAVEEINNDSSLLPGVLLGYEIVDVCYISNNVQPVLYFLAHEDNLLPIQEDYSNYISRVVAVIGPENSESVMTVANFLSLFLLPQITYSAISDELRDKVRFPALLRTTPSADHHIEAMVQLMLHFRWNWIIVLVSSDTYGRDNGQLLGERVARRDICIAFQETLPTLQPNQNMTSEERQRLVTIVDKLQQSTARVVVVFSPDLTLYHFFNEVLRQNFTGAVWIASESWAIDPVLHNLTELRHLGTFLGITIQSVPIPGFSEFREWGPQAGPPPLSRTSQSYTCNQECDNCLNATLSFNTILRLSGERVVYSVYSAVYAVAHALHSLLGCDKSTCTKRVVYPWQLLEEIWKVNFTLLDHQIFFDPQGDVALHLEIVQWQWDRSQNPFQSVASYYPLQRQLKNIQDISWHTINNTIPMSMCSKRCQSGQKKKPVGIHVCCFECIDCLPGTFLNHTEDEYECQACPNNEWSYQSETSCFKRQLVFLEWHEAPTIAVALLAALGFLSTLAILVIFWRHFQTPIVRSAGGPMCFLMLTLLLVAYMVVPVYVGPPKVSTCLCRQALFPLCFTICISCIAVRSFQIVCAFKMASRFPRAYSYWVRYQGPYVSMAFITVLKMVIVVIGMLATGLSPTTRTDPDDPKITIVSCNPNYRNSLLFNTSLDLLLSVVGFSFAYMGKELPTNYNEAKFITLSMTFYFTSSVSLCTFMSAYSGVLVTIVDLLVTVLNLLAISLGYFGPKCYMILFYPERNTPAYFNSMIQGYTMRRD
T1 sequence (Q7RTX0 21-852 partner): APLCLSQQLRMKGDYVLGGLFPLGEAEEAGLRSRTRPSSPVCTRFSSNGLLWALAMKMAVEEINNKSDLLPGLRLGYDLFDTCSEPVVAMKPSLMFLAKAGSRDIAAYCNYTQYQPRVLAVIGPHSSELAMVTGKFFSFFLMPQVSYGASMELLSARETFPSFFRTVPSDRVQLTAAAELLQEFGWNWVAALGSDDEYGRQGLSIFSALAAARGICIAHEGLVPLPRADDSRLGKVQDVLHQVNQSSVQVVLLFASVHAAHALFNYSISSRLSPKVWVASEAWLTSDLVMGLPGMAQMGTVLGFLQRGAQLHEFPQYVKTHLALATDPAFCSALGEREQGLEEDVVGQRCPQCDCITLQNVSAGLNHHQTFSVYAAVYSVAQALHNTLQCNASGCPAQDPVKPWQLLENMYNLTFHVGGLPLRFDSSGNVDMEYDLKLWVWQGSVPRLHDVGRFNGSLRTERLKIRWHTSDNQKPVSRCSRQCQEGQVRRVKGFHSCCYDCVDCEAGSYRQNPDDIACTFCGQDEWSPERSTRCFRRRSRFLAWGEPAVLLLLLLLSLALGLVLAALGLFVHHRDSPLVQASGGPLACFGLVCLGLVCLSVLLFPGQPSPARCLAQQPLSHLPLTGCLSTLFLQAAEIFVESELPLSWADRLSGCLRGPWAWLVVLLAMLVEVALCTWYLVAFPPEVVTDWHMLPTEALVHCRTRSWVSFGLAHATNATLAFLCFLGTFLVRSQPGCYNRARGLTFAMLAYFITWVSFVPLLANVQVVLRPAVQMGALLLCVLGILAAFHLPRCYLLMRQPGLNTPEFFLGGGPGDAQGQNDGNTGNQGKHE
Put plainly: Ca2+ mobilization, mutated human receptor. To be noted: for calcium response to sweetener: aspartame 10mM, neotame 1mM, sucralose 2 mM, compared with hTas1R2/hTas1R3; for response in dose-response experiment: versus hTas1R2+hTas1R3. It is filed as cell-based. A general note: Calcium flux is commonly read through the fluorescence of an indicator in the cells.

The target in experiment [2] is T2, hTas1R2:I67S/D142E+hTas1R3 (Homo sapiens, UniProt Q8TE23, D142E/I67S).
T2 sequence (Q8TE23 20-839 I67S/D142E): T1 sequence (Q8TE23 20-839 S40T/D142E) with T21S, I48S
T2 sequence (Q7RTX0 21-852 partner): T1 sequence (Q7RTX0 21-852 partner)
Put plainly: Ca2+ mobilization, mutated human receptor. To be noted: for calcium response to sweetener: aspartame 10mM, neotame 1mM, sucralose 2 mM, compared with hTas1R2/hTas1R3; for response in dose-response experiment: versus hTas1R2+hTas1R3. It is filed as cell-based.

For a further experiment, the target named is smTas1R2:S67I+smTas1R3 (Saimiri sciureus, UniProt A3QP08, S67I). Briefly: Ca2+ mobilization, mutated squirrel monkey receptor. It is filed as cell-based, squirrel monkey (Saimiri sciureus). The settings on record: aspartame 10mM, neotame 1mM, sucralose 2 mM; compared with smTas1R2/smTas1R3.
[3] abbreviates: HEK293E cells with Gα16-gust44, dose-response, calcium mobilization.
[4] abbreviates: ΔF/F normalized to maximum response of hTas1R2/hTas1R3 to neotame.

Each structure is given as a SMILES string. Residue numbers refer to the chain shown, from its start. pEC50: −log10 of the molar value. Entries after “also recorded” stand apart in the source; their conditions may differ. Peptide text beside a SMILES is read from it.

Sequence of smTas1R2:S67I+smTas1R3 (A3QP08 20-834 S67I): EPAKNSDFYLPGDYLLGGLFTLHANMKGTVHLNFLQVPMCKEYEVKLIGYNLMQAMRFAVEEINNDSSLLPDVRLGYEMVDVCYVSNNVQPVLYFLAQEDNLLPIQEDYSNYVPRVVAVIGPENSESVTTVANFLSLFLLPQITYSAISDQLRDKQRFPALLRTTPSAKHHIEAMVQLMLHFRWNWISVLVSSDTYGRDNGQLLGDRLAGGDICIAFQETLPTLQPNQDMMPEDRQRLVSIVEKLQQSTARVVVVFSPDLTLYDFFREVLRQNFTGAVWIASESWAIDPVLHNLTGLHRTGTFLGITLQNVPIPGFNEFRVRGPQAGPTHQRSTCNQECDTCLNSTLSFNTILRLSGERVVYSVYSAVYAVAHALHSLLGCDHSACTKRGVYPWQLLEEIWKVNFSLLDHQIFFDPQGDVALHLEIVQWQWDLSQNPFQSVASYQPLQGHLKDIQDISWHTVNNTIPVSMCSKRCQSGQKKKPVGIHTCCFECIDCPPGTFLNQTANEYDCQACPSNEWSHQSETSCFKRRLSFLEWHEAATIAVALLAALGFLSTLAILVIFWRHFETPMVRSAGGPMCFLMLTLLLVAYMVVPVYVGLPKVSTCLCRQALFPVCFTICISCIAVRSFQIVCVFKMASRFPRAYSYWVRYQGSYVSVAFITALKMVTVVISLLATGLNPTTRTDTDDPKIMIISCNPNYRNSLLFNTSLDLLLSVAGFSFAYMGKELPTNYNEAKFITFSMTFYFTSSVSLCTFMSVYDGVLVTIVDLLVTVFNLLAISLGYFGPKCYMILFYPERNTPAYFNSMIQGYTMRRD

Regarding `COC(=O)[C@H](Cc1ccccc1)NC(=O)[C@@H](N)CC(=O)O` [aspartame, L-α-aspartly-L-phenylalanine methyl ester] (H-Asp-Phe-OMe), the “calcium response to sweetener” value in experiment [1] is “abolished”; in experiment [2], “abolition”; at smTas1R2:S67I+smTas1R3, “not able to recover”. The “response in dose-response experiment” value in experiment [1] (dose-response) and in experiment [2] (dose-response) was “no responses” each time.
As a reminder, the pEC50 is the EC50 on a negative log10 scale, so that one unit is a factor of ten. For the molecule `COC(=O)[C@H](Cc1ccccc1)NC(=O)[C@H](CC(=O)O)NCCC(C)(C)C` [neotame], the pEC50 in experiment [1] (setting [3]) is 2.85; in experiment [2] (setting [3]) it was 2.33. The “calcium response to sweetener” value is “significantly reduced; also recorded: reduced the response to neotame by half” in experiment [1], “significant reduction” in experiment [2] and “not able to recover” at smTas1R2:S67I+smTas1R3. Further, the “response in dose-response experiment” value in experiment [1] (dose-response) and in experiment [2] (dose-response) was “weaker responses” each time. The “Bottom (B) of sigmoid dose-response fit” value is recorded as 1.387 in experiment [1] (setting [4]) and −1.772 in experiment [2] (setting [4]). The results for the “Top (T) of sigmoid dose-response fit” value in experiment [1] (setting [4]) and in experiment [2] (setting [4]) were 61.12 and 51.81, respectively.
